The values that follow come from ChEMBL document CHEMBL5385936, “Design, synthesis, α-amylase and glucose diffusion inhibition, and molecular docking studies of new indenopyrazolones bearing benzothiazole derivatives” (Bioorg Med Chem Lett, 2024).

A short description of assay [1]: In vitro antidiabetic activity measured by appearance of glucose in external solution using dialysis bag and D-glucose incubated for 1 to 27 hrs by 3,5-dinitrosalicylic acid based glucose diffusion inhibition assay. Type of assay: functional. As to conditions: time 1-27 hrs.
A short description of assay [2]: Inhibition of Aspergillus oryzae alpha-amylase in presence of 1% starch incubated for 10 mins.

Structures are written as SMILES.

The IC50 is the concentration needed to halve the response being measured.

On to `O=C1c2ccccc2-c2c1c(-c1cccc(Cl)c1)nn2-c1nc2ccc(F)cc2s1`, for which the Activity in assay [1] came out at 18 µg/mL. The concentration for half-maximal inhibition (IC50) in assay [2] is 190.98 µg/mL.

As to `COc1ccc(-c2nn(-c3nc4c(C)cccc4s3)c3c2C(=O)c2ccccc2-3)cc1`, in assay [1], the Activity was 12.7 µg/mL. In addition, the IC50 in assay [2] was 161.92 µg/mL.

Regarding `Cc1cccc(-c2nn(-c3nc4ccc(F)cc4s3)c3c2C(=O)c2ccccc2-3)c1`, the Activity in assay [1] was determined as 13.5 µg/mL. For the same molecule, the IC50 in assay [2] turned out to be 95.41 µg/mL.

In assay [1], `COc1cccc(-c2nn(-c3nc4ccc(F)cc4s3)c3c2C(=O)c2ccccc2-3)c1` showed an Activity of 10.9 µg/mL. Besides, in assay [2], the IC50 was determined as 162.5 µg/mL.

`Cc1cccc2sc(-n3nc(-c4ccccc4)c4c3-c3ccccc3C4=O)nc12` registered an Activity in assay [1] of 6.68 µg/mL. Also, the IC50 in assay [2] turned out to be 167.48 µg/mL.

In assay [1], `C[C@H]1O[C@H](O[C@H]2[C@H](O)[C@@H](O)[C@@H](O[C@H]3[C@H](O)[C@@H](O)C(O)O[C@@H]3CO)O[C@@H]2CO)[C@H](O)[C@@H](O)[C@@H]1N[C@H]1C=C(CO)[C@@H](O)[C@H](O)[C@H]1O` (some centres not stated) [ACARBOSE] yielded an Activity of 2.76 µg/mL. In assay [2], the IC50 worked out at 103.6 µg/mL.

In assay [1], `Cc1ccc(-c2nn(-c3nc4ccc(F)cc4s3)c3c2C(=O)c2ccccc2-3)cc1` registered an Activity of 6.8 µg/mL. Further, the IC50 in assay [2] was found to be 135.14 µg/mL.

Regarding `COc1ccc(-c2nn(-c3nc4ccc(F)cc4s3)c3c2C(=O)c2ccccc2-3)cc1`, in assay [1], the Activity came out at 4.26 µg/mL. Further, the IC50 in assay [2] is 104.74 µg/mL.

In turn, `Cc1cccc2sc(-n3nc(-c4cccc(Br)c4)c4c3-c3ccccc3C4=O)nc12` displayed an Activity in assay [1] of 6.29 µg/mL. In addition, in assay [2], the 50% inhibitory concentration (IC50) stood at 183.43 µg/mL.

As to `O=C1c2ccccc2-c2c1c(-c1ccccc1)nn2-c1nc2ccc(F)cc2s1`, the Activity in assay [1] amounted to 2.63 µg/mL. Moreover, the IC50 in assay [2] is 98.42 µg/mL.

Molecule `Cc1cccc2sc(-n3nc(-c4ccc(Cl)cc4)c4c3-c3ccccc3C4=O)nc12` showed an Activity in assay [1] of 9.5 µg/mL. Further, in assay [2], the IC50 was 92.99 µg/mL.

With `O=C1c2ccccc2-c2c1c(-c1ccc(Br)cc1)nn2-c1nc2ccc(F)cc2s1`, the Activity in assay [1] is 12.7 µg/mL. Moreover, the IC50 in assay [2] stood at 196.85 µg/mL.

Regarding `Cc1cccc2sc(-n3nc(-c4cccc(Cl)c4)c4c3-c3ccccc3C4=O)nc12`, the Activity in assay [1] stood at 2.25 µg/mL. Also, the 50% inhibitory concentration (IC50) in assay [2] came to 171.2 µg/mL.

The molecule `Cc1cccc(-c2nn(-c3nc4c(C)cccc4s3)c3c2C(=O)c2ccccc2-3)c1` yielded an Activity in assay [1] of 8.25 µg/mL. Further, the IC50 in assay [2] was 198.33 µg/mL.

Take `O=C1c2ccccc2-c2c1c(-c1ccc(F)cc1)nn2-c1nc2ccc(F)cc2s1`: the Activity in assay [1] turned out to be 11.5 µg/mL. In addition, in assay [2], the IC50 is 144.106 µg/mL.

For `Cc1ccc(-c2nn(-c3nc4c(C)cccc4s3)c3c2C(=O)c2ccccc2-3)cc1`, the Activity in assay [1] amounted to 7.25 µg/mL. In assay [2], the IC50 turned out to be 165.59 µg/mL.

For the molecule `Cc1cccc2sc(-n3nc(-c4ccc(Br)cc4)c4c3-c3ccccc3C4=O)nc12`, the Activity in assay [1] turned out to be 17.2 µg/mL. Also, the IC50 in assay [2] was 132.41 µg/mL.

The molecule `O=C1c2ccccc2-c2c1c(-c1cccc(Br)c1)nn2-c1nc2ccc(F)cc2s1` came in with an Activity in assay [1] of 11.9 µg/mL. Moreover, the IC50 in assay [2] amounted to 192.95 µg/mL.

Take `O=C1c2ccccc2-c2c1c(-c1ccc(Cl)cc1)nn2-c1nc2ccc(F)cc2s1`: the Activity in assay [1] amounted to 17.6 µg/mL. The IC50 in assay [2] came out at 189.69 µg/mL.

On to `Cc1cccc2sc(-n3nc(-c4ccc(F)cc4)c4c3-c3ccccc3C4=O)nc12`, for which, in assay [1], the Activity was determined as 13.2 µg/mL. Further, in assay [2], the concentration for half-maximal inhibition (IC50) stood at 159.95 µg/mL.

With `COc1cccc(-c2nn(-c3nc4c(C)cccc4s3)c3c2C(=O)c2ccccc2-3)c1`, in assay [1], the Activity is 10.8 µg/mL. The IC50 in assay [2] came to 200.95 µg/mL.
